# Laboratory results taken from patent publication US10201523B2, “Use of wilforlide A for overcoming chemotherapy resistance” (WESTERN UNIVERSITY OF HEALTH SCIENCES, priority 2013, dated 2019).
# Values joined by “and” are separate entries in the source; they are usually repeats but may differ in a detail not shown here. Equal entries are not always repeated. Where two headings read alike, the source gives them in different places.
# Assays:
# DU145-TxR = experiment: SRB cell viability assay, docetaxel with/without wilforlide A pretreatment; format: cell-based; conditions: DU145-TxR; for viability at 1 pM / viability at 0.0001 µM / viability at 0.000333 µM / viability at 0.001 µM / viability at 0.00333 µM / viability at 0.01 µM / viability at 0.0333 µM / viability at 0.1 µM: 72 h; for A at 565 nm: background = 0.046
# Excerpt: FIG. 4 summarizes the data of Tables 18 and 19 in a graphical format.
# DU-145 = experiment: SRB cell viability assay, docetaxel IC50 with/without wilforlide A pretreatment; format: cell-based; conditions: for IC50: Homo sapiens
# [1] = no wilforlide A pre-Tx, docetaxel 0.001 nM 72 h
# [2] = no wilforlide A pre-Tx, docetaxel 0.1 nM 72 h
# [3] = no wilforlide A pre-Tx, docetaxel 0.333 nM 72 h
# [4] = no wilforlide A pre-Tx, docetaxel 1 nM 72 h
# [5] = no wilforlide A pre-Tx, docetaxel 3.33 nM 72 h
# [6] = no wilforlide A pre-Tx, docetaxel 10 nM 72 h
# [7] = no wilforlide A pre-Tx, docetaxel 33.3 nM 72 h
# [8] = no wilforlide A pre-Tx, docetaxel 100 nM 72 h
# [9] = wilforlide A 2.5 μg/ml pre-Tx, docetaxel 0.001 nM 72 h
# [10] = wilforlide A 2.5 μg/ml pre-Tx, docetaxel 0.1 nM 72 h
# [11] = wilforlide A 2.5 μg/ml pre-Tx, docetaxel 0.333 nM 72 h
# [12] = wilforlide A 2.5 μg/ml pre-Tx, docetaxel 1 nM 72 h
# [13] = wilforlide A 2.5 μg/ml pre-Tx, docetaxel 3.33 nM 72 h
# [14] = wilforlide A 2.5 μg/ml pre-Tx, docetaxel 10 nM 72 h
# [15] = wilforlide A 2.5 μg/ml pre-Tx, docetaxel 33.3 nM 72 h
# [16] = wilforlide A 2.5 μg/ml pre-Tx, docetaxel 100 nM 72 h
smiles,measurement,setting,value
CC(=O)O[C@@]12CO[C@@H]1C[C@H](O)[C@@]1(C)C(=O)[C@H](O)C3=C(C)[C@@H](OC(=O)[C@H](O)[C@@H](NC(=O)OC(C)(C)C)c4ccccc4)C[C@@](O)([C@@H](OC(=O)c4ccccc4)[C@H]21)C3(C)C [docetaxel],viability at 1 pM,DU145-TxR; [1],100%
same,viability at 0.0001 µM,DU145-TxR; [2],104%
same,viability at 0.000333 µM,DU145-TxR; [3],99%
same,viability at 0.001 µM,DU145-TxR; [4],98.2%
same,viability at 0.00333 µM,DU145-TxR; [5],98.5%
same,viability at 0.01 µM,DU145-TxR; [6],101%
same,viability at 0.0333 µM,DU145-TxR; [7],99.2%
same,viability at 0.1 µM,DU145-TxR; [8],97.4%
same,viability at 1 pM,DU145-TxR; [9],100%
same,viability at 0.0001 µM,DU145-TxR; [10],104%
same,viability at 0.000333 µM,DU145-TxR; [11],102%
same,viability at 0.001 µM,DU145-TxR; [12],104%
same,viability at 0.00333 µM,DU145-TxR; [13],98.4%
same,viability at 0.01 µM,DU145-TxR; [14],102%
same,viability at 0.0333 µM,DU145-TxR; [15],94.1%
same,viability at 0.1 µM,DU145-TxR; [16],44.7%
same,mean A,DU145-TxR; [1],2.257
same,A at 565 nm,DU145-TxR; [1],2.285 and 2.199 and 2.289
same,mean A,DU145-TxR; [2],2.346
same,A at 565 nm,DU145-TxR; [2],2.354 and 2.413 and 2.272
same,mean A,DU145-TxR; [3],2.235
same,A at 565 nm,DU145-TxR; [3],2.281 and 2.251 and 2.175
same,mean A,DU145-TxR; [4],2.216
same,A at 565 nm,DU145-TxR; [4],2.279 and 2.233 and 2.137
same,mean A,DU145-TxR; [5],2.224
same,A at 565 nm,DU145-TxR; [5],2.207 and 2.230 and 2.236
same,mean A,DU145-TxR; [6],2.272
same,A at 565 nm,DU145-TxR; [6],2.254 and 2.359 and 2.203
same,mean A,DU145-TxR; [7],2.239
same,A at 565 nm,DU145-TxR; [7],2.145 and 2.270 and 2.303
same,mean A,DU145-TxR; [8],2.198
same,A at 565 nm,DU145-TxR; [8],2.153 and 2.224 and 2.217
same,mean A,DU145-TxR; [9],2.137
same,A at 565 nm,DU145-TxR; [9],2.092 and 2.151 and 2.170
same,mean A,DU145-TxR; [10],2.220
same,A at 565 nm,DU145-TxR; [10],2.248 and 2.263 and 2.151
same,mean A,DU145-TxR; [11],2.169
same,A at 565 nm,DU145-TxR; [11],2.187 and 2.102 and 2.218
same,mean A,DU145-TxR; [12],2.217
same,A at 565 nm,DU145-TxR; [12],2.177 and 2.229 and 2.246
same,mean A,DU145-TxR; [13],2.103
same,A at 565 nm,DU145-TxR; [13],2.064 and 2.090 and 2.155
same,mean A,DU145-TxR; [14],2.176
same,A at 565 nm,DU145-TxR; [14],2.171 and 2.204 and 2.155
same,mean A,DU145-TxR; [15],2.011
same,A at 565 nm,DU145-TxR; [15],2.086 and 2.018 and 1.930
same,mean A,DU145-TxR; [16],0.956
same,A at 565 nm,DU145-TxR; [16],0.987 and 0.926 and 0.957
same,IC50,"DU-145; 72 h, read-out: Drug IC50 no pre-Tx",> 100 nM
same,IC50,"DU-145; wilforlide A 2.5 μg/ml pre-Tx, read-out: Drug IC50 after wilforlide A pre-Tx",42.5 nM
same,CE,"DU-145; chemosensitization effect, wilforlide A 2.5 μg/ml pre-Tx",>2.35
